Measured values taken from patent US8835466B2, “Synthesis and uses of pyroglutamic acid derivatives” (Prodimed, S.A., priority 2006, dated 2014).

Key:
[1] = tested on: KLN 205 cells (lung cell carcinoma); assay: Effect of 9d in combination with Cisplatin on tumour growth, KLN 205 (Example 11); assay type: in vivo, DBA/2 mice; settings: for Tumour surface, overall values (Mean) / Tumour surface, overall values (Median) / Tumour volume, overall values (Mean) / Tumour volume, overall values (Median): Cisplatin 65 μg i.p. days 3, 6, 10, 13, 17, 20
Procedure: This was carried out by measuring two perpendicular diameters (d1/d2) with a calliper. These measures were used to obtain both tumour surface and volume: […] Results were expressed as single values and/or as the mean±SD or median from each experimental group. This assay was made in order to check the effect on in vivo tumour growth in mice challenged with KLN 205 cells. Their effect was compared with the combination of Cisplatin plus 9d and/or placebo. KLN 205 is a lung cell carcinoma originated in DBA/2 mouse strain, and therefore syngeneic in mice with DBA/2 genetic background (Kaneko T and […]. Growth characteristics and drug responses of a murine lung carcinoma in vitro and in vivo. Cancer Res. 38: 2084-2090; 1978). KLN 205 cells (CLS, Eppelheim, Germany) were maintained in vitro by serial passages every 3-4 days. […] Louis, Mo., USA) by seeding 5×10^6 cells onto 75 cm^2 culture flasks. Subcultures were carried out by collecting detached cells after treatment with trypsin-EDTA (Sigma, St. Louis, Mo., USA). Tumour cells, collected from 48 hour cultures, were used as source of KLN 205 cells for the studies described below. […] Tumours were established by subcutaneous inoculation in the right hind flank. Mice (DBA/2) were inoculated with 0.2 mL containing 2×10^5 viable KLN 205 cells. The day of subcutaneous inoculation will be considered Day 0 of the test. A case-control study was performed with treated and control mice in order to determine whether differences between placebo, 9d, Cisplatin or 9d+Cisplatin were present. […] The t-test was chosen for being one of the better known parametrical tests.

[2] = tested on: Lewis lung cells (lung cell carcinoma); assay: Effect of 9d in combination with Cisplatin on tumour growth, Lewis lung (Example 13); assay type: in vivo, C57BL/6J mice; settings: for SURFACE Overall values (Mean) / SURFACE Overall values (Median) / VOLUME Overall values (Mean) / VOLUME Overall values (Median): Cisplatin 65 μg, or both
Excerpt: This assay was made in order to check the effect on in vivo tumour growth in mice challenged with Lewis lung cells. Their effect will be compared with the combination of chemotherapeutic agents plus 9d and/or placebo. Lewis Lung is a lung cell carcinoma originated in C57BL/6J mice strain, and therefore syngeneic in mice with C57BL/6J genetic background (Rodrigo Garzón M, Tirapu Fernández de la Cuesta […], Noel […] and […]. Use of Gene Therapy in a Subcutaneous Murine Model of Lung Cancer. Arch Bronconeumology. 42: 526-532; 2006). Lewis lung cells (CLS, Eppelheim, Germany) were maintained in vitro by serial passages every 3-4 days. […] Louis, Mo., USA) by seeding 5×10^6 cells onto 75 cm^2 culture flasks. Subcultures were carried out by collecting detached cells after treatment with trypsin-EDTA (Sigma, St. Louis, Mo., USA). Tumour cells, collected from 48 hour cultures, were used as source of Lewis Lung cells for the studies described below. […] Tumours were established by subcutaneous inoculation in the right hind flank. Mice were inoculated with 0.2 mL containing 2×10^5 viable cells. The day of subcutaneous inoculation will be considered Day 0 of the test. Mice were observed daily and the tumour size recorded twice a week. This was carried out by measuring two perpendicular diameters (d1/d2) with a calliper. These measures were used to obtain both tumour surface and volume: […] Results were expressed as single values and/or as the mean±SD or median from each experimental group. A case-control study was performed with treated and control mice in order to determine whether differences between placebo, 9d, Cisplatin or 9d+Cisplatin were present. The data obtained (tumour surface and volume) were tested for Normal distribution within the groups (Kolmogorov Smirnov test p<0.05). […] The U-test of Mann Withney was chosen for being one of the better known non-parametrical tests, anyway, results for this test are equivalent both to those of Wilcoxon's sum of ranges and Kruskal-Wallis two-groups test. We excluded of the study animals that have undetectable or unscored tumour on 31th day after tumour inoculation. Due to the high dispersion of data, outlayers were excluded of the study.

[3] = 9d 250 ng, Cisplatin 65 μg i.p.
[4] = day 0 after tumour inoculation, 9d 250 ng
[5] = day 10 after tumour inoculation, 9d 250 ng
[6] = day 13 after tumour inoculation, 9d 250 ng
[7] = day 17 after tumour inoculation, 9d 250 ng
[8] = day 20 after tumour inoculation, 9d 250 ng
[9] = day 24 after tumour inoculation, 9d 250 ng
[10] = day 27 after tumour inoculation, 9d 250 ng
[11] = day 31 after tumour inoculation, 9d 250 ng
[12] = day 34 after tumour inoculation, 9d 250 ng
[13] = day 38 after tumour inoculation, 9d 250 ng
[14] = 9d 250 ng, day 0 after tumour inoculation
[15] = 9d 250 ng, day 10 after tumour inoculation
[16] = 9d 250 ng, day 13 after tumour inoculation
[17] = 9d 250 ng, day 17 after tumour inoculation
[18] = 9d 250 ng, day 20 after tumour inoculation
[19] = 9d 250 ng, day 24 after tumour inoculation
[20] = 9d 250 ng, day 27 after tumour inoculation
[21] = 9d 250 ng, day 31 after tumour inoculation

N.N.[Cl][Pt][Cl] [Cisplatin, reference compound]
Inhibition of the in vivo growth of KLN 205 cell, in words [1, 3]: inhibit the in vivo growth | Tumour surface, overall values (Mean) [1, 4]: 0 mm^2 | Tumour surface, overall values (Median) [1, 4]: 0 mm^2 | Tumour volume, overall values (Mean) [1, 4]: 0 mm^3 | Tumour volume, overall values (Median) [1, 4]: 0 mm^3 | Tumour surface, overall values (Mean) [1, 5]: 4.07 mm^2 | Tumour surface, overall values (Median) [1, 5]: 4 mm^2 | Tumour volume, overall values (Mean) [1, 5]: 5.1 mm^3 | Tumour volume, overall values (Median) [1, 5]: 4 mm^3 | Tumour surface, overall values (Mean) [1, 6]: 14.87 mm^2 | Tumour surface, overall values (Median) [1, 6]: 16 mm^2 | Tumour volume, overall values (Mean) [1, 6]: 31.77 mm^3 | Tumour volume, overall values (Median) [1, 6]: 32 mm^3 | Tumour surface, overall values (Mean) [1, 7]: 23.93 mm^2 | Tumour surface, overall values (Median) [1, 7]: 20 mm^2 | Tumour volume, overall values (Mean) [1, 7]: 59.1 mm^3 | Tumour volume, overall values (Median) [1, 7]: 40 mm^3 | Tumour surface, overall values (Mean) [1, 8]: 39.07 mm^2 | Tumour surface, overall values (Median) [1, 8]: 36 mm^2 | Tumour volume, overall values (Mean) [1, 8]: 119.07 mm^3 | Tumour volume, overall values (Median) [1, 8]: 108 mm^3 | Tumour surface, overall values (Mean) [1, 9]: 72.2 mm^2 | Tumour surface, overall values (Median) [1, 9]: 72 mm^2 | Tumour volume, overall values (Mean) [1, 9]: 285.43 mm^3 | Tumour volume, overall values (Median) [1, 9]: 288 mm^3 | Tumour surface, overall values (Mean) [1, 10]: 97.07 mm^2 | Tumour surface, overall values (Median) [1, 10]: 99 mm^2 | Tumour volume, overall values (Mean) [1, 10]: 445.8 mm^3 | Tumour volume, overall values (Median) [1, 10]: 445.5 mm^3 | Tumour surface, overall values (Mean) [1, 11]: 124.67 mm^2 | Tumour surface, overall values (Median) [1, 11]: 120 mm^2 | Tumour volume, overall values (Mean) [1, 11]: 637.07 mm^3 | Tumour volume, overall values (Median) [1, 11]: 600 mm^3 | Tumour surface, overall values (Mean) [1, 12]: 147.93 mm^2 | Tumour surface, overall values (Median) [1, 12]: 150 mm^2 | Tumour volume, overall values (Mean) [1, 12]: 809.03 mm^3 | Tumour volume, overall values (Median) [1, 12]: 800 mm^3 | Tumour surface, overall values (Mean) [1, 13]: 185.33 mm^2 | Tumour surface, overall values (Median) [1, 13]: 198 mm^2 | Tumour volume, overall values (Mean) [1, 13]: 1129.9 mm^3 | Tumour volume, overall values (Median) [1, 13]: 1089 mm^3 | Differences in KLN 205 tumour growth rate vs. placebo, statistical significance p (t-test) ([1]; either in surface or volume, all days scored after day 20th): < 0.05 | Inhibition of the in vivo growth of Lewis lung tumour in inbred mice, in words [2, 3]: inhibit the in vivo growth | SURFACE Overall values (Mean) [2, 14]: 0 mm^2 | SURFACE Overall values (Median) [2, 14]: 0 mm^2 | VOLUME Overall values (Mean) [2, 14]: 0 mm^3 | VOLUME Overall values (Median) [2, 14]: 0 mm^3 | SURFACE Overall values (Mean) [2, 15]: 2.4 mm^2 | SURFACE Overall values (Median) [2, 15]: 0 mm^2 | VOLUME Overall values (Mean) [2, 15]: 3.27 mm^3 | VOLUME Overall values (Median) [2, 15]: 0 mm^3 | SURFACE Overall values (Mean) [2, 16]: 6.73 mm^2 | SURFACE Overall values (Median) [2, 16]: 4 mm^2 | VOLUME Overall values (Mean) [2, 16]: 11.23 mm^3 | VOLUME Overall values (Median) [2, 16]: 4 mm^3 | SURFACE Overall values (Mean) [2, 17]: 20.73 mm^2 | SURFACE Overall values (Median) [2, 17]: 25 mm^2 | VOLUME Overall values (Mean) [2, 17]: 49.97 mm^3 | VOLUME Overall values (Median) [2, 17]: 56 mm^3 | SURFACE Overall values (Mean) [2, 18]: 58.33 mm^2 | SURFACE Overall values (Median) [2, 18]: 49 mm^2 | VOLUME Overall values (Mean) [2, 18]: 269.1 mm^3 | VOLUME Overall values (Median) [2, 18]: 171.5 mm^3 | SURFACE Overall values (Mean) [2, 19]: 106.07 mm^2 | SURFACE Overall values (Median) [2, 19]: 90 mm^2 | VOLUME Overall values (Mean) [2, 19]: 619.43 mm^3 | VOLUME Overall values (Median) [2, 19]: 405 mm^3 | SURFACE Overall values (Mean) [2, 20]: 160.07 mm^2 | SURFACE Overall values (Median) [2, 20]: 120 mm^2 | VOLUME Overall values (Mean) [2, 20]: 1076.9 mm^3 | VOLUME Overall values (Median) [2, 20]: 600 mm^3 | SURFACE Overall values (Mean) [2, 21]: 204.93 mm^2 | SURFACE Overall values (Median) [2, 21]: 169 mm^2 | VOLUME Overall values (Mean) [2, 21]: 1530.4 mm^3 | VOLUME Overall values (Median) [2, 21]: 1080 mm^3 | Differences in Lewis Lung tumour growth rate vs. placebo, statistical significance p (Mann-Whitney U test) ([2]; either in surface or volume, days 10th, 13th and 17 th): < 0.05
